From patent publication US20240116877A1, “KIT KINASE INHIBITORS AND METHODS OF USE THEREOF” (Deciphera Pharmaceuticals, LLC, priority 2021, published 2024)
Where two headings read alike, the source gives them in different places.

What was measured:
Ba/F3 KIT mutant cells = experiment: Ba/F3 mutant KIT Cell Proliferation Assays (resazurin); type: cell-based; conditions: Mus musculus, BaF3
Method in brief: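 IC50 values come from resazurin fluorescence (ex 540, em 600) after 5 h dye exposure, added as a 440 μM solution. Cells were IL-3-independent Ba/F3 expressing mutant KIT from a lentiviral vector, puromycin-selected.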

c-KIT kinase (uKIT) = c-KIT kinase (uKIT) (Homo sapiens (Human), UniProt P10721); experiment: Biochemical Assay for uKIT (coupled pyruvate kinase/lactate dehydrogenase assay); conditions: Inhibition of biochemical activity of uKIT kinase; 1 mM ATP
c-KIT kinase (uKIT), sequence (P10721 other isoform, or with tags, fused parts or gaps): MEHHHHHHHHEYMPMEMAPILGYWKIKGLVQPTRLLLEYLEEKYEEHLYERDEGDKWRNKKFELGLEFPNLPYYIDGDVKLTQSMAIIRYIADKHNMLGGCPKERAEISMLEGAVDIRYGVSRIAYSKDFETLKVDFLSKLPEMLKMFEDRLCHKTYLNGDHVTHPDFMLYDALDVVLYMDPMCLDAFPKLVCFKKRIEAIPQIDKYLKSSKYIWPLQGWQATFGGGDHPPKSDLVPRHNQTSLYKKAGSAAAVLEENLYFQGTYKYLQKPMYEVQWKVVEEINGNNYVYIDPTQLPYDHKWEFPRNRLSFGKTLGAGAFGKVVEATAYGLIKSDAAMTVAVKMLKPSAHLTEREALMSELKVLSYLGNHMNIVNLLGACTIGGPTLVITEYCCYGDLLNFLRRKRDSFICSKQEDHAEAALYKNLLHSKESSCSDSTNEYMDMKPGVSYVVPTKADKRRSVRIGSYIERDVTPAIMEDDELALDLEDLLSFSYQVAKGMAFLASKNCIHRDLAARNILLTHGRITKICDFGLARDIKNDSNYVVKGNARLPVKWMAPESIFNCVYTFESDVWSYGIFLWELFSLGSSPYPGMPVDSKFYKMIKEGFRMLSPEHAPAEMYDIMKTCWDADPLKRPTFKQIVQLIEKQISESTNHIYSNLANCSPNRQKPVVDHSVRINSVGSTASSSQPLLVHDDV
Method in brief: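 Continuous coupled PK/LDH assay following NADH oxidation at 340 nm for 6 h at 30° C, with 16 nM or 4.36 nM KIT (two constructs), 0.7 mg/mL PE4Y, 1 mM ATP, pH 7.5. Rates from the 2-3 h window converted to percent inhibition versus controls; IC50 fitted.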

GIST 430 cells = experiment: GIST 430 Cell Proliferation Assay (resazurin); type: cell-based; conditions: Homo sapiens; GIST430 cell proliferation
Method in brief: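 Five thousand cells per well were exposed to serially diluted compound in complete growth medium for 115 h at 37 degrees Celsius, 5% CO2. Resazurin was then added for a further 5 h, fluorescence read at 540 nm excitation/600 nm emission, and IC50 values calculated.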

[1] = Ba/F3 KIT AYdup-V654A mutant cell proliferation, read-out: AYdup-V654A IC50
[2] = Ba/F3 KIT exon11del-V654A mutant cell proliferation, read-out: exon11del-V654A IC50
[3] = Ba/F3 KIT exon11del-Y823D mutant cell proliferation, read-out: exon11del-Y823D IC50
[4] = Ba/F3 KIT AYdup mutant cell proliferation, read-out: AYdup IC50
[5] = Ba/F3 KIT AYdup-D816G mutant cell proliferation, read-out: AYdup-D816G IC50

SMILES	IC50 (Ba/F3 KIT mutant cells; [1]) [µM]	IC50 (Ba/F3 KIT mutant cells; [2]) [µM]	IC50 (Ba/F3 KIT mutant cells; [3]) [µM]	IC50 (c-KIT kinase (uKIT)) [µM]	IC50 (GIST 430 cells) [µM]	IC50 (Ba/F3 KIT mutant cells; [4]) [µM]	IC50 (Ba/F3 KIT mutant cells; [5]) [µM]
COCCOc1cc(F)c2c(Nc3ccc(NC(=O)CC(=O)NC[C@@H]4CCCO4)cc3)ncnc2c1 [Example 121]	0.1 to 1	0.01 to 0.1	> 1	0.1 to 1	0.1 to 1		
COCCOc1cc(F)c2c(Nc3ccc(NC(=O)N4CCC(C(C)(C)C)C4)cc3)ncnc2c1 (stereo not drawn) [Example 122]	0.1 to 1	0.01 to 0.1	> 1	0.01 to 0.1	0.1 to 1		
CC(C)(F)CCNC(=O)Nc1ccc(Nc2ncnc3cc(OCC4CCOCC4)cc(F)c23)cc1 [Example 123]	0.01 to 0.1	≤ 0.01	0.01 to 0.1	≤ 0.01	0.01 to 0.1		
COCCOc1cc(F)c2c(Nc3ccc(NC(=O)CC(=O)NC(C)(C)C)cc3)ncnc2c1 [Example 124]	0.01 to 0.1	0.01 to 0.1	0.1 to 1	0.01 to 0.1	0.01 to 0.1		
COCCOc1cc(F)c2c(Nc3ccc(NC(=O)C(=O)NCCC(C)(C)C)cc3)ncnc2c1 [Example 125]	0.01 to 0.1	0.01 to 0.1		0.01 to 0.1	0.01 to 0.1		
COCCOc1cc(F)c2c(Nc3ccc(NC(=O)C(=O)NCC(C)(C)C)cc3)ncnc2c1 [Example 126]	0.1 to 1	0.1 to 1	> 1	0.1 to 1	0.1 to 1		
COCCOc1cc(F)c2c(Nc3ccc(NC(=O)CC(=O)NCC(F)(F)F)cc3)ncnc2c1 [Example 127]	0.01 to 0.1	0.01 to 0.1	> 1	0.01 to 0.1	0.01 to 0.1		
COCCOc1cc(F)c2c(Nc3ccc(NC(=O)CC(=O)NC4(C(C)C)CC4)cc3)ncnc2c1 [Example 128]	0.01 to 0.1	≤ 0.01	0.1 to 1	0.01 to 0.1	0.01 to 0.1		
COCCOc1cc(F)c2c(Nc3ccc(NC(=O)CC(=O)NC4(C(F)(F)F)CC4)cc3)ncnc2c1 [Example 129]	0.01 to 0.1	≤ 0.01	> 1	0.01 to 0.1	0.01 to 0.1		
COCCOc1cc(F)c2c(Nc3ccc(NC(=O)CC(=O)NC(C)(C)C(F)(F)F)cc3)ncnc2c1 [Example 130]	0.01 to 0.1	≤ 0.01	0.01 to 0.1	0.01 to 0.1	0.01 to 0.1	≤ 0.01	0.01 to 0.1
COCCOc1cc(F)c2c(Nc3ccc(NC(=O)CC(=O)NC(C)(C)C4CC4)cc3)ncnc2c1 [Example 131]	0.01 to 0.1	≤ 0.01	0.01 to 0.1	0.01 to 0.1	0.01 to 0.1	≤ 0.01	0.01 to 0.1
COCCOc1cc(F)c2c(Nc3ccc(NC(=O)CC(=O)NCC4(C)COC4)cc3)ncnc2c1 [Example 132]	0.1 to 1	0.01 to 0.1		0.01 to 0.1	0.1 to 1		
COCCOc1cc(F)c2c(Nc3ccc(NC(=O)NCC=C(C)C)cc3)ncnc2c1 [Example 133]	≤ 0.01	≤ 0.01	0.01 to 0.1	≤ 0.01	0.01 to 0.1		
COCCOc1cc(F)c2c(Nc3ccc(NC(=O)CC(=O)NC4CC5(CCC5)C4)cc3)ncnc2c1 [Example 135]	≤ 0.01	≤ 0.01	0.01 to 0.1	≤ 0.01	≤ 0.01		
COCCOc1cc(F)c2c(Nc3ccc(NC(=O)CC(=O)NCC4CC(C)(C)C4)cc3)ncnc2c1 [Example 136]	0.01 to 0.1	≤ 0.01	0.1 to 1	0.01 to 0.1	0.01 to 0.1		
COCCOc1cc(F)c2c(Nc3ccc(NC(=O)NC(=O)CC4(C(F)(F)F)COC4)cc3)ncnc2c1 [Example 137]	0.01 to 0.1	0.01 to 0.1	> 1	0.01 to 0.1	0.01 to 0.1		
CC(C)(F)CCNC(=O)Nc1ccc(Nc2ncnc3cc(OC4CCOCC4)cc(F)c23)cc1 [Example 138]	0.01 to 0.1	≤ 0.01	0.1 to 1	≤ 0.01	0.01 to 0.1	≤ 0.01	0.01 to 0.1
COCCOc1cc(F)c2c(Nc3ccc(NC(=O)CC(=O)N4CC(C)(C)C4)cc3)ncnc2c1 [Example 139]	0.01 to 0.1	≤ 0.01	> 1	0.01 to 0.1	0.01 to 0.1	≤ 0.01	0.01 to 0.1
COCCOc1cc(F)c2c(Nc3ccc(NC(=O)CC(=O)N4CCCC4(C)C)cc3)ncnc2c1 [Example 140]	0.01 to 0.1	0.01 to 0.1	0.1 to 1	0.01 to 0.1	0.01 to 0.1		
COCCOc1cc(F)c2c(Nc3ccc(NC(=O)CC(=O)N4CCC(C)(C)C4)cc3)ncnc2c1 [Example 141]	0.01 to 0.1	≤ 0.01	0.01 to 0.1	0.01 to 0.1	0.01 to 0.1	≤ 0.01	0.01 to 0.1
COCCOc1cc(F)c2c(Nc3ccc(NC(=O)CC(=O)N4CCCCC4(C)C)cc3)ncnc2c1 [Example 142]	0.01 to 0.1	0.01 to 0.1	0.01 to 0.1	0.01 to 0.1	0.01 to 0.1		
COCCOc1cc(F)c2c(Nc3ccc(NC(=O)CC(=O)N(C)C(C)(C)C)cc3)ncnc2c1 [Example 143]	0.01 to 0.1	≤ 0.01	0.01 to 0.1	0.01 to 0.1	≤ 0.01	≤ 0.01	0.01 to 0.1
COCCOc1cc(F)c2c(Nc3ccc(NC(=O)CC(=O)NC4(C)COC4)cc3)ncnc2c1 [Example 144]	0.1 to 1	0.1 to 1		0.1 to 1	0.1 to 1		
CC(C)(C)CNC(=O)CC(=O)Nc1ccc(Nc2ncnc3cc(OCCN4CCOCC4)cc(F)c23)cc1 [Example 145]	0.01 to 0.1	≤ 0.01	0.01 to 0.1	0.01 to 0.1	0.01 to 0.1	≤ 0.01	0.01 to 0.1
CCN(C(=O)CC(=O)Nc1ccc(Nc2ncnc3cc(OCCOC)cc(F)c23)cc1)C(C)C [Example 146]	0.1 to 1	0.01 to 0.1		0.1 to 1	0.1 to 1		
CNC(=O)COc1cc(F)c2c(Nc3ccc(NC(=O)NCCC(C)(C)F)cc3)ncnc2c1 [Example 147]	0.1 to 1	0.01 to 0.1	> 1	0.01 to 0.1	0.1 to 1		
CN(C)C(=O)COc1cc(F)c2c(Nc3ccc(NC(=O)NCCC(C)(C)F)cc3)ncnc2c1 [Example 148]	0.1 to 1	0.01 to 0.1		0.01 to 0.1	0.1 to 1		
CC(C)(F)CCNC(=O)Nc1ccc(Nc2ncnc3cc(OC[C@@H]4CCOC4)cc(F)c23)cc1 [Example 149]	0.01 to 0.1	0.01 to 0.1	0.01 to 0.1	≤ 0.01	0.01 to 0.1		
CC(C)(F)CCNC(=O)Nc1ccc(Nc2ncnc3cc(OCCN4CCCC4)cc(F)c23)cc1 [Example 150]	0.01 to 0.1	0.01 to 0.1	0.1 to 1	≤ 0.01	0.01 to 0.1	≤ 0.01	0.01 to 0.1
